{
  "source": "paper PMC9343080",
  "about": "“Distribution- and Metabolism-Based Drug Discovery: A Potassium-Competitive Acid Blocker as a Proof of Concept” (Research, 2022)",
  "key": {"Rat microsomal stability": {"test": "Rat microsomal stability", "format": "in vitro ADME", "experimental": "(§1) The in vitro metabolic stabilities of selected compounds were performed using human and rat liver microsomes in triplicate as described previously."}, "Na+, K+-ATPase": {"target": "Na+, K+-ATPase", "test": "In vitro Na+, K+-ATPase activity", "format": "biochemical"}, "[1]": {"test": "Acute (single-dose) toxicity test", "format": "in vivo", "settings": "SD rats, single dose of 1000 mg/kg, i.g.", "experimental": "For acute toxicity test: 12 SPF SD rats were randomly divided into three groups and received a single dose of SH-337 (1000 mg/kg, i.g.), and the animal tolerance was recorded within 2 hours. For two-week repeat-dose toxicity test: 20 SPF SD rats were randomly divided into two groups and received SH-337 (100, 200 mg/kg, i.g.) once daily for 14 days. SH-337 was dissolved in 0.5% CMC-Na. The body weight of the rats was recorded every 7 days. During the experiment, clinical parameters included apparent changes in the mental state, skin or fur, behavior, genitals, mucous membranes, respiration, stool consistency, glandular organ secretions, mortality, or other toxic results that were recorded. In addition, animal bodyweight and food intake were assessed once weekly over the study period. At the end of the experiment, the rats were sacrificed, and the serum hematological parameters and serum biochemistry parameters were recorded."}, "[2]": {"test": "Metabolite identification and profiling in rat liver microsomes", "format": "in vitro ADME", "settings": "SH-337 10 µM, 30 min incubation", "experimental": "Liver microsomes (1 mg protein/mL) were suspended in phosphate buffer (50 mM, pH 7.4) containing MgCl2 (6 mM). […] The reactions were initiated at 37°C by the addition of 1 mM NADPH and terminated at 30 min or 60 min (30 min for rat; 60 min for human). The samples were precipitated with acetonitrile at 1 : 2 and further centrifuged; the supernatants were dried with a stream of N2 gas. The residues were reconstituted with 300 μL of 10% acetonitrile/H2O (0.1% TFA) and analyzed by LC-MS/MS. The assays were pursued under the conditions provided in Supplementary Tables S4, S6, S7, and S8."}, "[3]": {"test": "Human microsomal stability", "format": "in vitro ADME", "experimental": "as §1"}, "[4]": {"test": "Metabolite identification and profiling in rat hepatocytes", "format": "in vitro ADME", "settings": "SH-337, rat hepatocytes, 60 min incubation", "experimental": "SH-337 was incubated with rat or human hepatocytes at a concentration of 1.0 × 10^6 cells/mL for 60 min or 120 min (rat 60 min, human 120 min) at 37°C in a CO2 incubator. The samples were precipitated with acetonitrile at 1 : 2 and further centrifuged; the supernatants were dried with a stream of N2 gas. The residues were reconstituted with 300 μL of 10% acetonitrile/H2O (0.1% TFA) and analyzed by LC-MS/MS. The assays were pursued under the conditions provided in Supplementary Tables S5–S8."}, "[5]": {"system": "2-DG-stimulated gastric acid secretion", "test": "In vivo inhibition of 2DG-stimulated acid secretion in anesthetized rats", "design": "species or system rat", "experimental": "60 SPF SD rats weighing 180-220 g were randomly divided into […]: sham, model, SH-337 (2 mg/kg and 4 mg/kg), vonoprazan (2 mg/kg), males and females are equally divided. Fasting for 24 hours, model and sham groups were treated with deionized water. Drugs and vehicle were given through intragastric administration to rats before anesthesia. 1 h after administration, pylorus was ligated. 5 min later, histamine 2HCl (30 mg/10 mL/kg) was injected subcutaneously. At 3 h after histamine administration, the rats were killed by CO2 asphyxiation. The gastric contents were collected in a 10 mL centrifuge tube after removing their stomachs. Centrifuge at 3000 g for 10 min, and then, determine the total acid output during a 3 h period by 0.1 M NaOH [52, 53]. %Inhibition = (average of modelacid–drugacid)/average of modelacid × 100%.\nThe 2DG-stimulated acid secretion in anesthetized rats was measured as described as for histamine-stimulated acid secretion, with the exception that 5 min after pylorus ligation, 2-DG (200 mg/10 mL/kg) was injected subcutaneously."}},
  "data": [
    {"smiles": "CNCc1cc(-c2ccc(OCC3CC3)cc2F)n(S(=O)(=O)c2cccnc2)c1.Cl.Cl", "note": "[SH-337, 1-(5-(4-(cyclopropylmethoxy)-2-fluorophenyl)-1-(pyridin-3-ylsulfonyl)-1H-pyrrol-3-yl)-N-methylmethanamine dihydrochloride]", "values": [
      {"measurement": "fold reduction of t1/2 vs. vonoprazan", "setting": "Rat microsomal stability; rat microsomes", "result": 17.6, "unit": "fold"},
      {"measurement": "half-life", "setting": "Rat microsomal stability; rat, rat liver microsomes, read-out: Metabolic stability (t1/2) rat", "result": 3.1, "unit": "min"},
      {"measurement": "IC50", "setting": "Na+, K+-ATPase", "result": 31.3, "unit": "µM"},
      {"measurement": "Fold selectivity", "setting": "Na+, K+-ATPase; Na+, K+-ATPase over H+, K+-ATPase", "result": 925.6, "unit": "fold"},
      {"measurement": "animal death", "setting": "[1]", "result": "no animal death was observed"},
      {"measurement": "single-dose toxicity (tolerance)", "setting": "[1]", "result": "well tolerated"},
      {"measurement": "Relative peak area, RLMs", "setting": "[2]", "result": 45.7, "unit": "%"},
      {"measurement": "fold reduction of t1/2 vs. vonoprazan", "setting": "[3]; human microsomes", "result": 4.2, "unit": "fold"},
      {"measurement": "half-life", "setting": "[3]; human, human liver microsomes, read-out: Metabolic stability (t1/2) human", "result": 81.4, "unit": "min"},
      {"measurement": "Relative peak area, RHeps", "setting": "[4]", "result": 28.2, "unit": "%"},
      {"measurement": "Inhibition (%), 2-DG-stimulated model", "setting": "[5]; i.g. 2 mg/kg", "result": 78, "unit": "%"},
      {"measurement": "Total acid output, 2-DG-stimulated model", "setting": "[5]; i.g. 2 mg/kg", "result": "0.65 ± 0.31^∗∗ 10^−4 mol"},
      {"measurement": "Inhibition (%), 2-DG-stimulated model", "setting": "[5]; i.g. 4 mg/kg", "result": 91, "unit": "%"},
      {"measurement": "Total acid output, 2-DG-stimulated model", "setting": "[5]; i.g. 4 mg/kg", "result": "0.29 ± 0.29^∗∗ 10^−4 mol"}
    ]}
  ]
}
